Data taken from ChEMBL document CHEMBL1201862, “PubChem BioAssay data set” (2004).
The source made the active and inactive calls.

How the values were obtained:
HEK293 [1] = assay: cells; type: functional, cell-based; conditions: Homo sapiens
HEK293 [2] = assay: inhibition of NOD1-driven NF-kB reporter – cell-based, luminescence, uHTS, primary screen (AID 1578); type: functional; conditions: Homo sapiens
[3] = non-specific 3'UTR reporter inhibition in Clone20-Shn3RL – cell-based, Renilla luciferase, cherry-picked, counter-screen for Shn3 inhibitor project, dose response (AID 624133); type: functional
HEK293 [4] = assay: cells; type: functional, cell-based; conditions: Homo sapiens; remark: listed apart in the source
[5] = reduction of Shn3 3'UTR-driven luciferase in osteoblasts – cell-based, Clone20 osteoblasts, firefly luciferase, cherry-picked, dose response (AID 624132); type: functional;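 also: firefly luciferase luminescence from reporter carrying the Shn3 3'UTR in osteoblasts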
[6] = molecular target: Nucleotide-binding oligomerization domain-containing protein 2 (Homo sapiens, UniProt Q9HC29); assay: inhibition of NOD2-driven NF-kB reporter – cell-based, luminescence, uHTS, HEK293 (AID 1566); type: functional
[7] = loss of viability in HepG2 cells – cell-based, CellTiter-Glo, cherry-picked, cytotoxicity control for Shn3 inhibitor project, dose response (AID 624134); type: functional
HEK293 [8] = assay: NOD2 signaling inhibitors in MDP-stimulated cells, cell-based, uHTS, luminescence (AID 2001); type: functional; conditions: Homo sapiens
HEK293 [9] = assay: cells; type: functional, cell-based; conditions: Homo sapiens; remark: listed apart in the source
Protein RecA = molecular target: T1, Protein RecA (Mycobacterium tuberculosis, UniProt P9WHJ3); assay: Fluorescence Cell-Free Homogeneous Dose Retest to Identify Inhibitors of RecA-Intein Splicing Activity. [Related pubchem assays (depositor defined):AID2097, AID2223, AID489010, AID492950]; type: functional
T1 sequence (P9WHJ3 whole entry): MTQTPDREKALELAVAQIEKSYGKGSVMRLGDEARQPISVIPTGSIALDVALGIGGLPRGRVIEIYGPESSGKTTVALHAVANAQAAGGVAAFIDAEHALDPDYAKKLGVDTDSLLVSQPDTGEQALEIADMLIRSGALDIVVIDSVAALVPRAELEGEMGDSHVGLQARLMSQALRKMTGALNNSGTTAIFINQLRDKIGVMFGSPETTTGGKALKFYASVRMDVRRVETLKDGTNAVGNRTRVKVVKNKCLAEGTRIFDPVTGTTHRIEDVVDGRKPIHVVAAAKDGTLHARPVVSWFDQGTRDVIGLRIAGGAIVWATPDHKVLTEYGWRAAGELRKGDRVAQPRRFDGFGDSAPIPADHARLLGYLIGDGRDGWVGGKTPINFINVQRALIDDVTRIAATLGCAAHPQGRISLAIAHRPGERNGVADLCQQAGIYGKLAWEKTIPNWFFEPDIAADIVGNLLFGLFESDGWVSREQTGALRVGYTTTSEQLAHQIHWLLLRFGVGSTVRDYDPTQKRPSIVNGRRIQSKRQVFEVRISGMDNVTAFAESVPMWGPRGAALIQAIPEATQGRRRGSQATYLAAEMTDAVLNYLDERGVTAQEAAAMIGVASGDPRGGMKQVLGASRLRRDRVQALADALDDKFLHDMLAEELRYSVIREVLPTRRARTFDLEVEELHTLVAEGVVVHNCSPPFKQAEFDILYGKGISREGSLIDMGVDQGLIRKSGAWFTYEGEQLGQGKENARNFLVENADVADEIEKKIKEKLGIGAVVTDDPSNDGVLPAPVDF

[10] = molecular target: T2, Replicative DNA helicase DnaB (Mycobacterium tuberculosis, UniProt P9WMR3); assay: DnaB intein splicing inhibitors, dose response, biochemical, cell-free fluorescence (AID 449749); type: functional
T2 sequence (P9WMR3 whole entry): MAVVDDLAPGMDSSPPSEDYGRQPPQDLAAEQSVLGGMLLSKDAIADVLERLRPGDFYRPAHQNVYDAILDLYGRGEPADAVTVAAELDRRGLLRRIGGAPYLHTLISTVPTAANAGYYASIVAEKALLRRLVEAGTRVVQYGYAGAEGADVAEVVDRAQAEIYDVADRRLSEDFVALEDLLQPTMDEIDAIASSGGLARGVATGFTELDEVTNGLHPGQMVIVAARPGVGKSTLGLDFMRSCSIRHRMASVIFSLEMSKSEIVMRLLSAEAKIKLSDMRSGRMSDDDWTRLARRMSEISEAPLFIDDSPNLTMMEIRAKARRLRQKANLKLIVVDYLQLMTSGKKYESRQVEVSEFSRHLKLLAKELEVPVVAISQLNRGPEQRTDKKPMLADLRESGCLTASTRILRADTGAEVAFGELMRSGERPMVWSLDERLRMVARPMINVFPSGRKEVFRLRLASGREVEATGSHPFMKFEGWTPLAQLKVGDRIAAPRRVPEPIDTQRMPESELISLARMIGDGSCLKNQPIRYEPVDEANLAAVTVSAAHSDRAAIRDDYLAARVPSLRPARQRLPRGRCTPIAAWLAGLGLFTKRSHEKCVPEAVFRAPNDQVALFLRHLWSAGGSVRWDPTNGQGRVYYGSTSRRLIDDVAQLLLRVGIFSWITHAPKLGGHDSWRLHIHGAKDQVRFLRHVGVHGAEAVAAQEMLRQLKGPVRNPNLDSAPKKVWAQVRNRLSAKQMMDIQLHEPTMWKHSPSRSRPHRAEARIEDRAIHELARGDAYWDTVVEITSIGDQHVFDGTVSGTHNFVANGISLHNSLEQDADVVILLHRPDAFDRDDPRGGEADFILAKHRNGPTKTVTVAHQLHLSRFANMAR

Estrogen receptor = molecular target: T3, Estrogen receptor (Homo sapiens, UniProt P03372);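 also: potency for inhibiting coactivator peptide recruitment to the receptor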
T3 sequence (P03372 whole entry): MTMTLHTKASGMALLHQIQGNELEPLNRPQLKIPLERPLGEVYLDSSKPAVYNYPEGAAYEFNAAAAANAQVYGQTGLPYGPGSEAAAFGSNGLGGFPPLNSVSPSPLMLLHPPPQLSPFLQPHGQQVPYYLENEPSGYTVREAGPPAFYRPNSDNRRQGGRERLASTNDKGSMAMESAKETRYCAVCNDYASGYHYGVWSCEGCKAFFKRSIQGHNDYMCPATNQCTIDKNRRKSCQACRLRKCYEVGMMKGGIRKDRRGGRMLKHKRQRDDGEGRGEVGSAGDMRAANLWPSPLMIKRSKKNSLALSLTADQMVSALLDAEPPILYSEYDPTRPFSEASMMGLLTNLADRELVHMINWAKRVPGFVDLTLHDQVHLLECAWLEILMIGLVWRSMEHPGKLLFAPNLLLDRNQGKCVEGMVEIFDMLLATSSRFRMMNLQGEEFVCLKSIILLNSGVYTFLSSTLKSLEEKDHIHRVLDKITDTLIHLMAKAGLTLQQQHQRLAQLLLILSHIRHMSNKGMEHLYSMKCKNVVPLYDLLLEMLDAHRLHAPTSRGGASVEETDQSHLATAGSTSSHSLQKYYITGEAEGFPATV

Streptococcus = assay: GAS UMAA2166 growth inhibition – luminescence, BacTiterGlo, counter-screen for streptokinase expression inhibitor project, dose response (AID 1915); type: functional, organism-based;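 also: potency for reduction of bacterial viability or growth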
[11] = tested on: Streptococcus sp. 'group A'; assay: Streptococcus pyogenes SK(-)GAS viability under kanamycin – luminescence, BacTiterGlo, confirmation, counter-screen for streptokinase expression inhibitor project, dose response (AID 1900); type: functional, organism-based
Streptokinase A = molecular target: T4, Streptokinase A (Streptococcus pyogenes serotype M1, UniProt P10520); assay: viability-normalized secreted streptokinase activity reduction – plasminogen activation absorbance, OD405, dose response (AID 1914); type: functional, Streptococcus pyogenes M1 GAS;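 also: secreted streptokinase activity via plasminogen activation per viability signal from cell pellet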
T4 sequence (P10520 whole entry): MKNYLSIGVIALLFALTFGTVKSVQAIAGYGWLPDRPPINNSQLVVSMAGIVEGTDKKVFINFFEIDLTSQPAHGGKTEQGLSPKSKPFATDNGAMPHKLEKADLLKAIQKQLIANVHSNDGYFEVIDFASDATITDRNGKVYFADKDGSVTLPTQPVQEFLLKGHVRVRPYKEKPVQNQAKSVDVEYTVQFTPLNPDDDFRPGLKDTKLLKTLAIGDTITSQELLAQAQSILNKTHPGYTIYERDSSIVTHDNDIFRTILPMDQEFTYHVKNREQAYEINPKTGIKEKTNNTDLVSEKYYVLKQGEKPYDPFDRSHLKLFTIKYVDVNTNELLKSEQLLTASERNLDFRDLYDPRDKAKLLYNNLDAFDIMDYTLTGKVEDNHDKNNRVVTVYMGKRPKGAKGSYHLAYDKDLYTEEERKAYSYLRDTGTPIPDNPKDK

[12] = molecular target: G-protein coupled receptor 55 (Homo sapiens, UniProt Q9Y2T6); assay: selective activators of receptor GPR55 – imaging, U2OS cells, beta-arrestin-GFP redistribution, primary screen (AID 1961); type: functional
Troponin, cardiac muscle = Troponin, cardiac muscle (Homo sapiens, UniProt P19429+P45379+P63316); assay: Fluorescence-based biochemical high throughput dose response assay for activators of the calcium sensitivity of cardiac Regulated Thin Filaments (RTF). [Related pubchem assays (depositor defined):AID493008, AID493018, AID504382, AID504383]; type: protein-complex assay
[13] = viability loss in THP-1 monocytes – THP-1 cells, cytotoxicity control for Vif-APOBEC3G degradation inhibitor project, dose response (AID 1117359); type: functional; conditions: THP-1
[14] = A Cell Based Secondary Assay To Explore Cytotoxicity of Compounds that Sensitize Mycobacterium Tuberculosis to Beta-Lactam Antibiotics.; type: functional

Q: Which results are given for `Cc1nc2ccc(NC(=O)c3cccc(S(=O)(=O)N(C)c4ccccc4)c3)cc2s1`?
A: IC50 (HEK293 [1]): 15.2 µM (active); EC50 (HEK293 [2]): 7.57 µM (active); AC50 [3]: 12.8 µM (active); IC50 (HEK293 [4]): 6.11 µM (active); AC50 [5]: 7.6 µM (active); EC50 [6]: 7.35 µM (active); AC50 [7]: 58.6 µM (active); IC50 (HEK293 [8]): 5.24 µM (active); IC50 (HEK293 [9]): 9.65 µM (active)

Q: For `O=C(Oc1ccc(N2C(=O)CCC2=O)cc1)c1ccco1`, which EC50 (Protein RecA) is on record?
A: Its EC50 is 388 nM (active).

Q: And the AC50 [10]?
A: Its AC50 is 351 nM (inconclusive).

Q: And the IC50 (Estrogen receptor)?
A: Its IC50 is > 50 µM (not active).

Q: For `CCN(CC)S(=O)(=O)c1cccc(C(=O)Nc2nc3cc4c(cc3s2)OCCO4)c1`, which IC50 (HEK293 [1]) is on record?
A: The IC50 was > 20 µM (inactive).

Q: What about the EC50 (HEK293 [2]) of the same compound?
A: Its EC50 is 3.29 µM (active).

Q: What about the IC50 (HEK293 [4]) of the same compound?
A: Its IC50 is 4.3 µM (active).

Q: And the EC50 (Streptococcus)?
A: Its EC50 is 7.62 µM (active).

Q: And the EC50 [11]?
A: The EC50 was 1.08 µM (active).

Q: And the EC50 [6]?
A: Its EC50 is 4.53 µM (active).

Q: What about the IC50 (HEK293 [8]) of the same compound?
A: Its IC50 is 3.47 µM (active).

Q: What about the IC50 (HEK293 [9]) of the same compound?
A: The IC50 was 9.78 µM (active).

Q: And the EC50 (Streptokinase A)?
A: The EC50 was > 150 µM (not active).

Q: Which EC50 [12] does the source give for `O=CN1CCN(c2ncnc3c2nnn3Cc2c(F)cccc2Cl)CC1` here?
A: Its EC50 is 12.7 µM (inactive).

Q: Which EC50 (Troponin, cardiac muscle) does the source give for `C[C@@H](C(=O)N1CCNCC1)n1cc(CCCN=C(N)N)nn1` here?
A: Its EC50 is > 71.5 µM (inactive).

Q: For `COc1cccc(/C=N/NC(=O)c2cnccn2)c1O`, which CC50 [13] is on record?
A: Its CC50 is > 40 µM (active).

Q: And the CC50 [14]?
A: Its CC50 is > 40 µM (active).
